Laboratory results taken from patent publication US12054497B2, “Substituted heterocyclic fused cyclic compound, preparation method therefor and pharmaceutical use thereof” (GENFLEET THERAPEUTICS (SHANGHAI) INC., priority 2019, dated 2024).
Read-outs that look alike come from different tables or passages of the source.

Columns and labels:
KRas G12C = KRas G12C (Homo sapiens (Human), UniProt P01116, G12C); test: Nucleotide exchange assay (NEA)-HTRF, SOS1 catalyzed displacement of GDP by GTP (Test Example 4); format: biochemical
Procedure, shortened: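 His-tagged KRas G12C preloaded with DY647-GDP (40 nM working solution, with anti-His Tb) was preincubated 15 min with compound at 20 °C. SOS1/GTP (0.2 μM/200 μM working solution) was then added for 2 h in the dark. The HTRF 665/615 nm ratio gave inhibition relative to no-compound control and SOS1/GTP-free T0, with a four-parameter IC50 fit.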

[1] = system: MIA PaCa-2 cells with Kras G12C mutation; test: Cell proliferation inhibition experiment, 3D spheroid, CellTiter-Glo (Test Example 3); format: cell-based, human; conditions: 5 days, read-out: MIA-PaCa2 IC50
Procedure, shortened: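 MIA PaCa-2 spheroids (200 cells/well) were formed overnight, then exposed for 5 days to compounds in 3.16-fold dilutions at 0.1% DMSO. Viability was read by CellTiter-Glo luminescence, and inhibition was normalised to DMSO control and medium blank. IC50 came from a four-parameter fit.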

[2] = system: subcutaneous xenograft tumor model of MIA PaCa-2; test: In vivo pharmacodynamic experiment, tumor growth inhibition (Test Example 5); design: species or system BALB/c nude mice; conditions: p.o., QD; for TGI: day 14
Description: Experimental objective: to evaluate the in vivo pharmaceutical effects of tested compounds on the subcutaneous xenograft tumor model of MIA PaCa-2.
Experimental operation: 6 to 8 weeks old female BALB/c nude mice each having the body weight of 18-20 g were chosen. MIA PaCa-2 cells were cultured in DMEM containing 10% FBS, 2.5% HS and 1% penicillin-streptomycin at 37° C. in an incubator with 5% CO2. Cells were collected. The MIA PaCa-2 cells were subcutaneously inoculated to the animals at their backs on the right, 2.0×10^6 cells (0.1 mL) for each animal. When tumor grew to 190-311 mm^3, mice with tumor having a suitable size were chosen and treated in groups, with administration dosages shown in Table 5 below. The animals were weighed on an electronic balance each day. The tumor volume was investigated by using a vernier caliper twice a week. The tumor volume was calculated by the following equation: V=0.5 a×b^2, a and b representing the long diameter and the short diameter of the tumor, respectively. The tumor volume was used to calculate a tumor growth inhibition rate (TGI), and the TGI shown in the form of a percentage was used to indicate the antineoplastic activity of a compound. The TGI was calculated by the following equation: TGI (%)=[1−avTi−0/avCi−0)]×100, with avTi−0 representing the average tumor volume of the group administrated with the compound on a specific day minus the average tumor volume of this group on the day of grouping, and avCi−0 representing the average tumor volume of the solvent control group on a specific day minus the average tumor volume of the solvent control group on the day of grouping. The tumor volume was shown in the form of an average value±standard error of mean (SEM).

[3] = Homo sapiens, MIA PaCa-2, 120 h

Chain of KRas G12C (P01116-2 other isoform, or with tags, fused parts or gaps G12C): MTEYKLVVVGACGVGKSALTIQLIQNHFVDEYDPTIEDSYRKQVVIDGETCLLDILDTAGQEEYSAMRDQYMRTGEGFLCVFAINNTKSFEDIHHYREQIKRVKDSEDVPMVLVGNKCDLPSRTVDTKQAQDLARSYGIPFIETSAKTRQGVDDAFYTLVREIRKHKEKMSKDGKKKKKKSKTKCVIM

Compound | IC50 (KRas G12C) | IC50 [1, 3] | Tumor Volume on Day 14 after Administration ([2]; 1 mg/kg) | TGI ([2]; 1 mg/kg) | Tumor Volume on Day 14 after Administration ([2]; 3 mg/kg) | TGI ([2]; 3 mg/kg) | Tumor Volume on Day 14 after Administration ([2]; 10 mg/kg) | TGI ([2]; 10 mg/kg) | IC50 ([1]; Homo sapiens, 120 h) | IC50 [1]
C=CC(=O)N1CCN2c3c(c(=O)n(-c4c(C)ccnc4C(C)C)c4nc(-c5c(O)cccc5F)c(F)cc34)N(C)C(=O)[C@H]2C1 (single isomer, unassigned) [Compound Z9-2] | 115 nM | 17 nM |  |  |  |  |  |  |  | 
C=CC(=O)N1CCN2c3c(c(=O)n(-c4c(C)ccnc4C(C)C)c4nc(-c5c(O)cccc5F)c(F)cc34)OC[C@H]2C1 [Compound Z1, (4aR)-3-acryloyl-11-fluoro-10-(2-fluoro-6-hydroxyphenyl)-8-(2-isopropyl-4-methylpyridin-3-yl)-1,2,3,4,4a,5-hexahydropyrazino[1′,2′:4,5][1,4]oxazino[2,3-c][1,8]naphthyridin-7(8H)-one] | 255 nM | 90 nM |  |  |  |  |  |  |  | 
C=CC(=O)N1CCN2c3c(c(=O)n(-c4c(C)ccnc4C(C)C)c4nc(-c5c(O)cccc5F)c(Cl)cc34)N(C)C(=O)[C@H]2C1 (single isomer, unassigned) [Compound Z25-2] | 25 nM |  | 180.14 mm^3 | 116.2% | 62.35 mm^3 | 143.7% | 18.94 mm^3 | 154.4% | 5 nM | 
C=CC(=O)N1CCN2c3c(c(=O)n(-c4c(C(C)C)ncnc4C(C)C)c4c(F)c(-c5c(O)cccc5F)c(Cl)cc34)NC(=O)[C@H]2C1 (single isomer, unassigned) [Compound Z37-1] | 11 nM | 2 nM | 286.12 mm^3 | 89.4% | 238.82 mm^3 | 102.8% | 210.59 mm^3 | 108.4% |  | 
[2H]C([2H])([2H])N1C(=O)[C@H]2CN(C(=O)C=C)CCN2c2c1c(=O)n(-c1c(C)ccnc1C(C)C)c1nc(-c3c(O)cccc3F)c(Cl)cc21 (single isomer, unassigned) [Compound Z26-2] | 40 nM |  | 157.06 mm^3 | 121.1% | 67.66 mm^3 | 143.8% | 30.49 mm^3 | 151.1% |  | 5 nM
C=CC(=O)N1C[C@@H]2C(=O)N(C)c3c(c4cc(F)c(-c5c(O)cccc5F)nc4n(-c4c(C)ccnc4C(C)C)c3=O)N2C[C@H]1C (single isomer, unassigned) [Compound Z10-2] | 37 nM | 8 nM |  |  |  |  |  |  |  | 
C=CC(=O)N1C[C@@H]2C(=O)N(C)c3c(c4cc(Cl)c(-c5c(O)cccc5F)nc4n(-c4c(C)ccnc4C(C)C)c3=O)N2C[C@H]1C (single isomer, unassigned) [Compound Z27-2] | 9 nM | 1 nM | 140.10 mm^3 | 126.3% | 54.81 mm^3 | 145.1% | 15.16 mm^3 | 155.8% |  | 
C=CC(=O)N1CCN2c3c(c(=O)n(-c4c(C(C)C)ncnc4C(C)C)c4nc(-c5c(O)cccc5F)c(Cl)cc34)N(C)C(=O)[C@H]2C1 [Compound Z48] |  | 6 nM | 459.33 mm^3 | 51.2% | 148.62 mm^3 | 124.7% | 90.39 mm^3 | 138.5% |  | 
